Experiment [1] has as its target T1, KRAS-WT and SOS1 proteins (Homo sapiens, UniProt Q07889).
T1 construct: purchased Cisbio 63ADK000CB15PEG
T1 sequence (Q07889 1-1333): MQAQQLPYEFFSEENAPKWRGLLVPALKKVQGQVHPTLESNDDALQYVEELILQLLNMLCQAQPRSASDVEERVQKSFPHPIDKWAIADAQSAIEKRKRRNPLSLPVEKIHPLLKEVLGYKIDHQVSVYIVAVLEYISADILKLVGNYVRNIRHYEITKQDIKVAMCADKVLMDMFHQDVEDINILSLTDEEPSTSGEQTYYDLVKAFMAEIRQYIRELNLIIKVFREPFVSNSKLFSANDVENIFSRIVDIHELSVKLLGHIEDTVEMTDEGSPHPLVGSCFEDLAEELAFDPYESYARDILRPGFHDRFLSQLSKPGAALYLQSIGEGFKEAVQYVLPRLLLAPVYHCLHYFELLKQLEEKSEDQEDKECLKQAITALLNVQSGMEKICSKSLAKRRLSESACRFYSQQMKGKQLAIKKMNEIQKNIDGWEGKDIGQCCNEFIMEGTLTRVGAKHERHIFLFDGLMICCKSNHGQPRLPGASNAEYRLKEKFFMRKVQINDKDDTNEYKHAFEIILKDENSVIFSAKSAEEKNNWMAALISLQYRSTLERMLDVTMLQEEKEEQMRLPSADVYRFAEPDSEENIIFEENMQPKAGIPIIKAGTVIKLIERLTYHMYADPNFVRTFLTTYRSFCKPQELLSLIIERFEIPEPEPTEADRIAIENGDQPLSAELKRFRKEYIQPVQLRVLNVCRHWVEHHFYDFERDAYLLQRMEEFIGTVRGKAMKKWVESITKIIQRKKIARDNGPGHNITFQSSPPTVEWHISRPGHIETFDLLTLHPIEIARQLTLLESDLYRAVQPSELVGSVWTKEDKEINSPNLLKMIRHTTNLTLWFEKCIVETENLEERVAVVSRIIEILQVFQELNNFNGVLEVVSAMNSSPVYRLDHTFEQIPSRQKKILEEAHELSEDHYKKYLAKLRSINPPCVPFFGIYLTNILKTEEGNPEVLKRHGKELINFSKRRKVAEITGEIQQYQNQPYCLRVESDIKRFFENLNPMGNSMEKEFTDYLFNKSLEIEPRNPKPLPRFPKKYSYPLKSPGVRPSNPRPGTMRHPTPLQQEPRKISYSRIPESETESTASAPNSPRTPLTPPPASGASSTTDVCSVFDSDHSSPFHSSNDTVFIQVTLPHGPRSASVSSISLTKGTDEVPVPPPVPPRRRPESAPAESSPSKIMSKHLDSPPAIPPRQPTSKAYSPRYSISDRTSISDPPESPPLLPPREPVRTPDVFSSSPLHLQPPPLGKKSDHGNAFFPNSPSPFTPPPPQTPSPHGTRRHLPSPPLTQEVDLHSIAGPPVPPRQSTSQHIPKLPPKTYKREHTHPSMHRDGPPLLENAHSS
The experiment in a line: KRAS-WT/SOS1 binding assay (HTRF). To be noted: Tag1-SOS1 / Tag2-KRAS-WT, 10 μM GTP, read-out: Activity Data in Kras: SOS1 Assay, Wild Type.

Experiment [2] addresses T2, KRAS G12D and SOS1 proteins (Homo sapiens, UniProt Q07889).
T2 construct: purchased Cisbio 63ADK000CB17PEG
T2 sequence (Q07889 1-1333): T1 sequence (Q07889 1-1333)
The experiment in a line: KRAS-G12D/SOS1 binding assay (HTRF). Conditions: Tag1-SOS1 / Tag2-KRAS G12D, 10 μM GTP. For orientation: In TR-FRET formats the signal depends on donor and acceptor labels being close together.

The target in experiment [3] is T3, KRAS G12C and SOS1 proteins (Homo sapiens, UniProt Q07889).
T3 construct: purchased Cisbio 63ADK000CB16PEG
T3 sequence (Q07889 1-1333): T1 sequence (Q07889 1-1333)
The experiment in a line: KRAS-G12C/SOS1 binding assay (HTRF). To be noted: Tag1-SOS1 / Tag2-KRAS G12C, 10 μM GTP. As for the experimental part:
KRAS-WT (or G12C/G12D/G12V)/SOS1 Binding Assay
Low IC50 values are indicative of high potency of the SOS1 inhibitor compounds in this assay setting.
The KRAS-WT (or G12C/G12D/G12V)/SOS1 binding assay is performed using an assay kit (Cisbio, Cat #63ADK000CB15PEG or 63ADK000CB16PEG/63ADK000CB17PEG/63ADK000CB18PEG) according to the procedure recommended by the manufacturer. • 1) Thaw and prepare the working solution of Tag1-SOS1 protein and Tag2-KRAS-WT (or G12C/G12D/G12V) protein with final concentration of 10 μM GTP (Sigma, Cat #V900868). • 2) Thaw and prepare the working solution of anti-Tag1-Tb^3+ anti-Tag2-XL665. • 3) Dispense 2 μL of serially diluted compound, 4 μL of Tag1-SOS1 protein and 4 μL of Tag2-KRAS-WT (or G12C/G12D/G12V) protein with GTP into a ProxiPlate-384 Plus, white 384-shallow well microplate (PerkinElmer, Cat #6008280). • 4) Incubate the plate for 15 minutes at room temperature. • 5) Dispense 10 μL of pre-mixed anti-Tag1-Tb^3+ and anti-Tag2-XL665 into the plate. • 6) Seal the plate and incubate for 2 hours at room temperature. • 7) Remove the plate sealer and read on PHERAstar FS (BMG LABTECH, PHERAstar FS). • 8) Calculate the ratio of the acceptor and donor emission signals for each individual well using the following equation.
[formula] • 9) IC50 values are fitted and calculated by HTRF signal values and log of compound concentrations to nonlinear regression [Log (inhibitor) vs. Response−Variable Slope (four parameters)] using the GraphPad Prism 8.0.

With `COc1cc2c(cc1C1CCOCC1)c(N[C@H](C)c1cccc(C(F)(F)CO)c1)nc1ccnn12` [Example 51, (R)-2,2-difluoro-2-(3-(1-((8-methoxy-7-(tetrahydro-2H-pyran-4-yl)pyrazolo[1,5-a]quinazolin-5-yl)amino)ethyl)phenyl)ethanol], the IC50 in experiment [1], in experiment [2] and in experiment [3] was 100 to 500 nM in each case.

As for `COc1cc2c(cc1-c1ccc(=O)n(C)c1)c(N[C@H](C)c1cccc3c1CCC3(F)F)nc1ccnn12` [Example 46, (R)-5-(5-((1-(1,1-difluoro-2,3-dihydro-1H-inden-4-yl)ethyl)amino)-8-methoxypyrazolo[1,5-a]quinazolin-7-y1)-1-methylpyridin-2(1H)-one], the IC50 in experiment [1] was below 100 nM; in experiment [2] it was 100 to 500 nM; in experiment [3], 100 to 500 nM.

The values are drawn from patent publication US20240109891A1, “NOVEL SUBSTITUTED TRICYCLIC AZA-HETEROCYCLES AS SOS1 INHIBITORS” (Viva Star Biosciences (Suzhou) Co., Ltd., priority 2021, published 2024).
